# Test results from publication PMC12494099, “Discovery and Characterization of Novel IKZF1/3 Glue Degraders against Multiple Hematological Cancer Cell Lines” (Oncology Research, 2025).
# Experiments:
# Assay type in all cases: cell-based
# endogenous CK1α = molecular target: T1, endogenous CK1α (Homo sapiens, UniProt P48729); assay: Immunoblot analysis of endogenous protein; details: both NCI-H929 and MV-4-11 cells, up to 10 μM, 24 h
# T1 construct: endogenous in cells; host or cells: NCI-H929 and MV-4-11
# T1 sequence (Q96SW2 whole entry partner): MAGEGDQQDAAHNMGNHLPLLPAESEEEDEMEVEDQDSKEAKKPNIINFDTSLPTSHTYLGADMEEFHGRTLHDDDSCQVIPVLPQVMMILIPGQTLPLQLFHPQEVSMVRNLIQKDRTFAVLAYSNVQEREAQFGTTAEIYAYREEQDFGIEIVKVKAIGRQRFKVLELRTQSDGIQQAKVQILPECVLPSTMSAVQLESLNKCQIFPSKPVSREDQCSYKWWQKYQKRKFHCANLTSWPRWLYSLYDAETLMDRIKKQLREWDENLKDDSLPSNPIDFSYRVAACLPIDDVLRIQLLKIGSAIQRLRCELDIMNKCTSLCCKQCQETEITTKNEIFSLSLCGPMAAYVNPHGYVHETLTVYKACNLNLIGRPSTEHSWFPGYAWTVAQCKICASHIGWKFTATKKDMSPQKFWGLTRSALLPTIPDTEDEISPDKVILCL
# T1 sequence (Q16531 whole entry partner): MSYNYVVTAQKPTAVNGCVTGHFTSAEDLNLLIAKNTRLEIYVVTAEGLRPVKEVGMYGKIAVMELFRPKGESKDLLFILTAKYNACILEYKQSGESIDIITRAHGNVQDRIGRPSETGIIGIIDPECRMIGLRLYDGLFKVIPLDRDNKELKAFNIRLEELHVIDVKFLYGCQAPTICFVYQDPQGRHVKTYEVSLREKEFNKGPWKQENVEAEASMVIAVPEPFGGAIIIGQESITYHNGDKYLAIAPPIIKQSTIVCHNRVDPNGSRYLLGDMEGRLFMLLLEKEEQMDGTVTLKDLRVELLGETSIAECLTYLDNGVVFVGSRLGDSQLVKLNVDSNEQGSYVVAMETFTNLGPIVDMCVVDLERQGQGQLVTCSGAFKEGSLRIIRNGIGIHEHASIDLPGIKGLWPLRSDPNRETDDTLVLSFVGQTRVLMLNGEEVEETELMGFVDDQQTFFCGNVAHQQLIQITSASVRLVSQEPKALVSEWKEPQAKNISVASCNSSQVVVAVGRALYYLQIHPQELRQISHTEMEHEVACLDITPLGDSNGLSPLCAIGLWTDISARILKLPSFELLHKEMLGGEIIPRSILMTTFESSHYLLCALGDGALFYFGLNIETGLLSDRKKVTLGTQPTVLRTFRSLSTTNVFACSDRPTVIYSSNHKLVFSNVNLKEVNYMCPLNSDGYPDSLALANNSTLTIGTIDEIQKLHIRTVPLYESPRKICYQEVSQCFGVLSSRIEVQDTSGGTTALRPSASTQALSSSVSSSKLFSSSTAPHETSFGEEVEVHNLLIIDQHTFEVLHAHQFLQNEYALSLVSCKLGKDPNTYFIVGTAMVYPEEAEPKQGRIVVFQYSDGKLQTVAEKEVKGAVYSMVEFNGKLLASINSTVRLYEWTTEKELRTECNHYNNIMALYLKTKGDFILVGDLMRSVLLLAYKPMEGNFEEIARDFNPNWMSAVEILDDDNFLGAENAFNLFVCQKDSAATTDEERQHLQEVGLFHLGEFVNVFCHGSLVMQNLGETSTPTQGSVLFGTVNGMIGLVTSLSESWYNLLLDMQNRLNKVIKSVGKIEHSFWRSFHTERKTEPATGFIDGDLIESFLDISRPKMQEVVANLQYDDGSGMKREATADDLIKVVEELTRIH
# T1 sequence (P48729 whole entry): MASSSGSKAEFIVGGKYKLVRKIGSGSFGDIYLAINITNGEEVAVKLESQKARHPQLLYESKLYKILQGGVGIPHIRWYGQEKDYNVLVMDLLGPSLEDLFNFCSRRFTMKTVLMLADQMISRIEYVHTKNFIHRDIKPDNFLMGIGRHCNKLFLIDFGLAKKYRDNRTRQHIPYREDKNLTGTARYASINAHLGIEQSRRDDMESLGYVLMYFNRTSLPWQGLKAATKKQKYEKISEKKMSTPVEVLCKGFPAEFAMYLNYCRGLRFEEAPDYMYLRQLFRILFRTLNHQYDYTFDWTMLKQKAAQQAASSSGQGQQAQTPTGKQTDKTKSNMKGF
# Description: (§1) Cells (NCI-H929 and MV-4-11) were plated into 6-well plates. They were then treated with different concentrations (0, 0.01, 0.1, 1, 10 μM) of the compounds (MGD-A7, MGD-C9) or the designated time periods. Afterward, the cells were washed with phosphate-buffered saline (PBS, pH = 7.2–7.4, 1×). Next, they were lysed using RIPA buffer (#R0278-500ML, Sigma-Aldrich, MO, USA), and the cell lysates were precisely measured. Following this, the total protein lysates underwent 10% sodium dodecyl sulfate-polyacrylamide gel electrophoresis (SDS-PAGE). This method efficiently separated the proteins based on their molecular weights. Subsequently, the separated proteins were transferred onto a nitrocellulose membrane (#HATF00010, […], Madison, WI, USA). The membranes were then successively incubated with the indicated primary antibodies. These antibodies were diluted in 5% bovine serum albumin (BSA) in Tris-buffered saline with Tween 20 (TBST, #TF103; Epizyme, Shanghai, China). The incubation was conducted overnight at 4°C with gentle agitation. The secondary antibodies were also diluted in 5% BSA in TBST (#TF103; Epizyme, Shanghai, China). […] Finally, after thorough washing with TBST, the membranes were developed using an enhanced chemiluminescence (ECL) substrate (#WBULS0100, Sigma-Aldrich). The chemiluminescent signal was detected, and membrane images were captured with an Imaging system (Bio-Rad, Hercules, CA, USA). ImageJ analysis software (V1.8.0.112, National Institutes of Health, NIH, Bethesda, MD, USA) was employed to analyze the intensity of protein bands, aiming to quantify the relative expression levels of the target proteins. The half-maximal degradation concentration (DC50) value, which indicates the concentrations of test compounds showing 50% protein degradation efficacy, was calculated using GraphPad Prism 8.0.
# endogenous GSPT1 = molecular target: T2, endogenous GSPT1 (Homo sapiens, UniProt P15170); assay: Immunoblot analysis of endogenous protein; details: both NCI-H929 and MV-4-11 cells, up to 10 μM, 24 h
# T2 construct: endogenous in cells; host or cells: NCI-H929 and MV-4-11
# T2 sequence (Q96SW2 whole entry partner): as the sequence (Q96SW2 whole entry partner) above
# T2 sequence (Q16531 whole entry partner): as the sequence (Q16531 whole entry partner) above
# T2 sequence (P15170 whole entry): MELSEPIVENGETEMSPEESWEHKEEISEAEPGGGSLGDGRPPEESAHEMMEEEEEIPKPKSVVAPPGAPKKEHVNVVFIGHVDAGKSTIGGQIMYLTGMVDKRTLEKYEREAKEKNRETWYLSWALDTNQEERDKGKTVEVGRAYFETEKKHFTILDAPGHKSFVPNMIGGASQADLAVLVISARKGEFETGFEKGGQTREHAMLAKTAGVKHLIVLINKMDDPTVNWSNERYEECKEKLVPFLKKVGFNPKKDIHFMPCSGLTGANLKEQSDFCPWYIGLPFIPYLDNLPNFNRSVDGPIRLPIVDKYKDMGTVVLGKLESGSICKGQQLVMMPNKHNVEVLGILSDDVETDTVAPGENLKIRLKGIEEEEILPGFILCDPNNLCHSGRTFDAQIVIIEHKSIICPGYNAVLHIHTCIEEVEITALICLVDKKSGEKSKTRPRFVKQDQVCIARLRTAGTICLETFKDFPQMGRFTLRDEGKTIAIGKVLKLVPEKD
# Description: as §1
# endogenous IKZF3 = molecular target: T3, endogenous IKZF3 (Homo sapiens, UniProt Q96SW2+Q9UKT9); assay: Immunoblot analysis of endogenous protein; details: both NCI-H929 and MV-4-11 cells, 24 h, greater than pomalidomide
# T3 construct: endogenous in cells; host or cells: NCI-H929 and MV-4-11
# T3 sequence (Q9UKT9 whole entry): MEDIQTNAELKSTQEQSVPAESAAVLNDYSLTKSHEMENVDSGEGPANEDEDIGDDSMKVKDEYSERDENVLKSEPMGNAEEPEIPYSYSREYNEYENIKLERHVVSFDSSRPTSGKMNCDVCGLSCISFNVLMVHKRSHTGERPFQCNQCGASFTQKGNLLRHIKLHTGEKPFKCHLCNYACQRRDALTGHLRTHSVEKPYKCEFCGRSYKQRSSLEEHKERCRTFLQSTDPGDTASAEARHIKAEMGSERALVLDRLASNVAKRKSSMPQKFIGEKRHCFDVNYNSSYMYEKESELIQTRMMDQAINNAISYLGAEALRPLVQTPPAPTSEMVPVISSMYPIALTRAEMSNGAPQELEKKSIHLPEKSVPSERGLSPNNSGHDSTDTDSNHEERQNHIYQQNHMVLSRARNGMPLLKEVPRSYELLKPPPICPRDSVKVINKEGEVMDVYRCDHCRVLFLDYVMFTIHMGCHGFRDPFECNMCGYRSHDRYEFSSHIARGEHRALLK
# T3 sequence (Q96SW2 whole entry): as the sequence (Q96SW2 whole entry partner) above
# T3 sequence (Q16531 whole entry partner): as the sequence (Q16531 whole entry partner) above
# Description: as §1
# endogenous IKZF1 = molecular target: T4, endogenous IKZF1 (Homo sapiens, UniProt Q13422+Q96SW2); assay: Immunoblot analysis of endogenous protein; details: both NCI-H929 and MV-4-11 cells, 24 h, greater than pomalidomide
# T4 construct: endogenous in cells; host or cells: NCI-H929 and MV-4-11
# T4 sequence (Q13422 whole entry): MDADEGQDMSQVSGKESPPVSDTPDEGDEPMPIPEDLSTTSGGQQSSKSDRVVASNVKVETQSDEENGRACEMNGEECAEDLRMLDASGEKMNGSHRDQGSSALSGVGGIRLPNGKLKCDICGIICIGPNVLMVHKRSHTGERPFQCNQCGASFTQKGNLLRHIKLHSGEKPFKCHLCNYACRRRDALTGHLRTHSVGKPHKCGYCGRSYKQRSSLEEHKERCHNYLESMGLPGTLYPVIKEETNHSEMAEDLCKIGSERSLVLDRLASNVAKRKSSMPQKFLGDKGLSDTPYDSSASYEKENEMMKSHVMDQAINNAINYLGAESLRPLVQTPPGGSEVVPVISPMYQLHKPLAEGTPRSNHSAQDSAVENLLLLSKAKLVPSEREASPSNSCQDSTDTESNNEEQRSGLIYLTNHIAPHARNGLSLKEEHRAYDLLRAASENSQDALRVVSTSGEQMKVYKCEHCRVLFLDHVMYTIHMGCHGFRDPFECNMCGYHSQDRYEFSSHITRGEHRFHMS
# T4 sequence (Q96SW2 whole entry): as the sequence (Q96SW2 whole entry partner) above
# T4 sequence (Q16531 whole entry partner): as the sequence (Q16531 whole entry partner) above
# Description: as §1
# CRBN^−/− NCI-H929 cells = assay: Cell viability, CRBN knockout cells; details: Homo sapiens, NCI-H929, 96 h
# Description: (§2) Multiple cell lines (NCI-H929, OPM-2, U937, Ocl-Ly3, RPMI-8226, MOLM-13, Skm-1, MUTZ-1, SU-DHL-4, TMD8, U2932, WSU-DLCL-2, MV-4-11 and KG-1 cells) were plated into 96-well plates. The plated at a density of 15,000 cells per well, and each well contained 100 µL of medium. Subsequently, different compounds (MGD-AX, MGD-BX, MGD-CX) were added to each well. These compounds’ concentrations were set at 0, 0.01, 0.033, 0.1, 0.33, 1, 3.3, 10 and 33 μM, and the cells were incubated with the compounds for 96 h. To evaluate the antiproliferative effects of these compounds, the Cell Counting Kit-8 (CCK-8, #CX007, Epizyme, Shanghai, China) was used. All procedures were carried out in strict accordance with the manufacturer’s instructions (Dojindo Laboratories, Mamoto Ken, Japan). The half maximal inhibitory concentrations (IC50) values, which represent the concentrations of the test compounds that can inhibit 50% of cell activity, were calculated using GraphPad Prism 8.0 (GraphPad Software Inc., San Diego, CA, USA).
# (§3) […] NCI-H929 and MV-4-11 cells were seeded at a density of 1 × 10^6 cells/well in 6-well tissue culture-treated plates. According to the manufacturer’s protocol (Santa Cruz Biotechnology, Inc, Dallas, TX, USA), CRBN CRISPR/Cas9 knockout Plasmid (#sc-412142), CRBN HDR plasmid (#sc-412142-HDR), UltraCruz® Transfection Reagent (#sc-395739) were pre-mixed in Plasmid Transfection Medium (#sc-108062) at a 1:1:2 mass ratio, and cells were transiently transfected in a 37°C, 5% CO2 incubator. After 72 h of infection, the medium was replaced with complete medium containing 3 μg/mL puromycin for 5–7 days. On day 7, GFP-positive cells were sorted as single cells into 96-well plates. Isolated single-cell clones were screened via western blot analysis, using wild-type NCI-H929 or MV-4-11 cells as positive controls.
# CRBN^−/− MV-4-11 cells = assay: Cell viability, CRBN knockout cells; details: Homo sapiens, MV4-11, 96 h
# Description: as §2, §3
# MV-4-11 = assay: Cell apoptosis assay (Annexin V flow cytometry)
# Description: (§4) Cells (NCI-H929 and MV-4-11) were seeded at a density of 1 × 10^6 cells per well into 6-well dishes. […] Apoptosis was assessed using an Annexin V-FITC kit (#ab14085; Abcam, MA, USA) on a FACS Calibur Flow Cytometer (Becton Dickinson, Franklin Lakes, NJ, USA). For cell cycle analysis, cells were fixed in 75% ethanol (−20°C/overnight), washed with PBS (pH = 7.2–7.4, 1×), treated with RNase A (0.2 mg/mL, 37°C/30 min), stained with PI (10 μg/mL), and analyzed on the same instrument. Finally, the samples were analyzed using a FACS Calibur Flow Cytometer.
# NCI-H929 = assay: Cell apoptosis assay (Annexin V flow cytometry); details: NCI-H929, 1 and 10 µM
# Description: as §4
Compound,degradation of endogenous CK1α (endogenous CK1α),degradation of endogenous GSPT1 (endogenous GSPT1),degradation of endogenous IKZF3 (endogenous IKZF3),degradation of endogenous IKZF1 (endogenous IKZF1),IC50 (CRBN^−/− NCI-H929 cells) [µM],IC50 (CRBN^−/− MV-4-11 cells) [µM],"apoptosis rate (MV-4-11; MV-4-11, 1 µM) [%]","apoptosis rate (MV-4-11; MV-4-11, 10 µM) [%]",apoptosis (in words) (NCI-H929)
"CN1CCN(Cc2cccc(C(=O)NC3CCC(=O)NC3=O)c2)CC1 (stereo not drawn) [MGD-A7, N-(2,6-dioxopiperidin-3-yl)-3-((4-methylpiperazin-1-yl)methyl)benzamide]",minimal degradation effects,minimal degradation effects,effectively induced the degradation,effectively induced the degradation,> 33,> 33,22.5,36.6,significantly induced apoptosis
"CN1CCN(Cc2cccc(C(=O)NC3CCC(=O)NC3=O)c2F)C(=O)C1 (stereo not drawn) [MGD-C9, N-(2,6-dioxopiperidin-3-yl)-2-fluoro-3-((4-methyl-2-oxopiperazin-1-yl)methyl)benzamide]",minimal degradation effects,minimal degradation effects,effectively induced the degradation,effectively induced the degradation,> 33,> 33,26.0,40.7,significantly induced apoptosis
